Molecular target: T1, hTLR7 (Homo sapiens, UniProt Q9NYK1)
T1 sequence (Q9NYK1 27-1049): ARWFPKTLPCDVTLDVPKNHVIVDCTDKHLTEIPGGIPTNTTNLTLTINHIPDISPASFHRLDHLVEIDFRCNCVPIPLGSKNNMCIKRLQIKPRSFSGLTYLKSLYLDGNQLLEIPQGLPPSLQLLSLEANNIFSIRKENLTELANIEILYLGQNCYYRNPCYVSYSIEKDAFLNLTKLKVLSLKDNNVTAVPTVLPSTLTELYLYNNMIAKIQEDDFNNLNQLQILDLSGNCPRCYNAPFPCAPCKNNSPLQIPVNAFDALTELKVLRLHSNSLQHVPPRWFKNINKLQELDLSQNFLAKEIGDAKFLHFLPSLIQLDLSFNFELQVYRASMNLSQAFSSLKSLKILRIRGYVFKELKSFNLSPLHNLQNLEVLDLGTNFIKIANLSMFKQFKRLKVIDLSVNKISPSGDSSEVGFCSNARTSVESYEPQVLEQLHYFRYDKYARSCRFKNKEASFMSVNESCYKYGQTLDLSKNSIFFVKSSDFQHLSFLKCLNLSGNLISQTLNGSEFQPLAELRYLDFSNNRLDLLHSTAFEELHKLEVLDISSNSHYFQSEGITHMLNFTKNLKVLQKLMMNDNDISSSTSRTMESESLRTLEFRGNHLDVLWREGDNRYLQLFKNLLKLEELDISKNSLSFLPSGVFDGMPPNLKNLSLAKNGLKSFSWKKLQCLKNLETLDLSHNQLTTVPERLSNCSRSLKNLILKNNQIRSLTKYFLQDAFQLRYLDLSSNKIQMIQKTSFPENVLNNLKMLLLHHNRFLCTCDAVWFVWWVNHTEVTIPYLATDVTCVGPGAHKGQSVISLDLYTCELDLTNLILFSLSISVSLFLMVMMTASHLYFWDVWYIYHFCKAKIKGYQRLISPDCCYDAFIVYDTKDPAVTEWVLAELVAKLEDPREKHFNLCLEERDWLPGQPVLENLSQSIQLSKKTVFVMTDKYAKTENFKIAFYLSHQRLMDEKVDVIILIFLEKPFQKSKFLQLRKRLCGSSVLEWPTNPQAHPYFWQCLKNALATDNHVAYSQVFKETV
Experiment: HEK293-Blue-hTLR-7 cells assay (SEAP reporter, R848 stimulation)
Type: cell-based
Parameters: host or cells: HEK293 (HEK-Blue)
Conditions: HEK293-Blue-hTLR7 cells, R848, 20 hrs; read-out: HEK/hTLR7 IC50
Description: A stable HEK293-Blue-hTLR-7 cell line was purchased from InvivoGen (Cat.#: hkb-htlr7, San Diego, California, USA). These cells were originally designed for studying the stimulation of human TLR7 by monitoring the activation of NF-κB. A SEAP (secreted embryonic alkaline phosphatase) reporter gene was placed under the control of the IFN-β minimal promoter fused to five NF-κB and AP-1-binding sites. The SEAP was induced by activating NF-xB and AP-1 via stimulating HEK-Blue hTT,R7 cells with TLR7 ligands. Therefore, the reporter expression was declined by TLR7 antagonist under the stimulation of a ligand, such as R848 (Resiquimod), for incubation of 20 hrs. The cell culture supernatant SEAP reporter activity was determined using QUANTI-Blue™ kit (Cat.#: rep-qb1, Invivogen, San Diego, Ca, USA) at a wavelength of 640 nm, a detection medium that turns purple or blue in the presence of alkaline phosphatase.
HEK293-Blue-hTLR7 cells were incubated at a density of 250,000-450,000 cells/mL in a volume of 170 µL in a 96-well plate in Dulbecco's Modified Eagle's medium (DMEM) containing 4.5 g/L glucose, 50 U/mL penicillin, […], […], 2 mM L-glutamine, 10% (v/v) heat-inactivated fetal bovine serum with addition of 20 µL test compound in a serial dilution in the presence of final DMSO at 1% and 10 µL of 20uM R848 in above DMEM, perform incubation under 37 °C in a CO2 incubator for 20 hrs. Then 20 µL of the supernatant from each well was incubated with 180 µL Quanti-blue substrate solution at 37 °C for 2 hrs and the absorbance was read at 620-655 nm using a spectrophotometer. The signaling pathway that TLR7 activation leads to downstream NF-xB activation has been widely accepted, and therefore similar reporter assay was modified for evaluating TLR7 antagonist.

| Compound | IC50 [µM] |
| --- | --- |
| C[C@@H]1CN(c2ccc(C#N)c3ncccc23)C[C@H](CN2CCN(c3ccc4c(n3)CCNC4)C[C@H](O)C2)O1 (single isomer, unassigned) [Example 35A] | 0.06 |
| C[C@@H]1CN(c2ccc(C#N)c3ncccc23)C[C@H](CN2CCN(c3ccc4c(n3)CCNC4)C[C@@H](O)C2)O1 (single isomer, unassigned) [Example 35B] | 0.061 |
| C[C@@H]1CN(c2ccc(C#N)c3ncccc23)C[C@H](CN2C[C@H]3CN(c4ccc5c(n4)CCNC5)CC[C@@H]32)O1 (single isomer, unassigned) [Example 54] | 0.006 |
| C[C@@H]1CN(c2ccc(C#N)c3ncccc23)C[C@H](CN2C[C@H]3CN(c4ccc5c(n4)CCNC5)CC[C@H]32)O1 (single isomer, unassigned) [Example 55] | 0.004 |
| C[C@@H]1CN(c2ccc(C#N)c3ncccc23)C[C@H](CN2CCN(c3ccc4c(n3)CN[C@H]4C)CC2)O1 (single isomer, unassigned) [Example 63] | 0.011 |
| C[C@@H]1CN(c2ccc(C#N)c3ncccc23)C[C@H](CN2CCN(c3ccc4c(n3)CN[C@@H]4C)CC2)O1 (single isomer, unassigned) [Example 64] | 0.012 |
| C[C@@H]1CN(c2ccc(C#N)c3ncccc23)C[C@H](CN2CCN(c3ccc4c(n3)[C@@H](C)NC4)CC2)O1 (single isomer, unassigned) [Example 65] | 0.007 |
| C[C@@H]1CN(c2ccc(C#N)c3ncccc23)C[C@H](CN2CCN(c3ccc4c(n3)[C@H](C)NC4)CC2)O1 (single isomer, unassigned) [Example 66] | 0.014 |
| C[C@@H]1CN(c2ccc(C#N)c3ncccc23)C[C@H](CN2CCN(c3cnc4c(c3)CN[C@H]4C)CC2)O1 (single isomer, unassigned) [Example 67] | 0.013 |
| C[C@@H]1CN(c2ccc(C#N)c3ncccc23)C[C@H](CN2CCN(c3cnc4c(c3)CN[C@@H]4C)CC2)O1 (single isomer, unassigned) [Example 68] | 0.013 |
| C[C@@H]1Cc2cc(N3CCN(C[C@H]4CN(c5ccc(C#N)c6ncccc56)C[C@@H](C)O4)CC3)ncc2CN1 (single isomer, unassigned) [Example 70] | 0.026 |
| C[C@@H]1CN(c2ccc(C#N)c3ncccc23)C[C@H](CN2CCN(c3cc4c(cn3)CN[C@@H](C)C4)CC2)O1 (single isomer, unassigned) [Example 71] | 0.024 |
| C[C@@H]1CN(c2ccc(C#N)c3ncccc23)C[C@H](CN2CCN(c3cc4c(cn3)[C@H](C)NCC4)CC2)O1 (single isomer, unassigned) [Example 72] | 0.013 |
| C[C@@H]1CN(c2ccc(C#N)c3ncccc23)C[C@H](CN2CCN(c3cc4c(cn3)[C@@H](C)NCC4)CC2)O1 (single isomer, unassigned) [Example 73] | 0.017 |
| C[C@@H]1CN(c2ccc(C#N)c3ncccc23)C[C@H](CN2CCN(c3cc4c(cn3)CCN[C@@H]4C)CC2)O1 (single isomer, unassigned) [Example 74] | 0.007 |
| C[C@@H]1CN(c2ccc(C#N)c3ncccc23)C[C@H](CN2CCN(c3cc4c(cn3)CCN[C@H]4C)CC2)O1 (single isomer, unassigned) [Example 75] | 0.008 |

| Compound | IC50 [µM] |
| --- | --- |
| C[C@@H]1CN(c2ccc(C#N)c3ncccc23)C[C@H](CN2CCN(c3cc4c(cn3)C[C@H](C)NC4)CC2)O1 (single isomer, unassigned) [Example 76] | 0.014 |
| C[C@@H]1Cc2cnc(N3CCN(C[C@H]4CN(c5ccc(C#N)c6ncccc56)C[C@@H](C)O4)CC3)cc2CN1 (single isomer, unassigned) [Example 77] | 0.011 |
| C[C@@H]1CN(c2ccc(C#N)c3nccnc23)C[C@H](CN2CCN(c3ccc4c(n3)CN[C@H]4C)CC2)O1 (single isomer, unassigned) [Example 78] | 0.005 |
| C[C@@H]1CN(c2ccc(C#N)c3nccnc23)C[C@H](CN2CCN(c3ccc4c(n3)CN[C@@H]4C)CC2)O1 (single isomer, unassigned) [Example 79] | 0.008 |
| C[C@@H]1CN(c2ccc(C#N)c3nccnc23)C[C@H](CN2CCN(c3cc4c(cn3)C[C@H](C)NC4)CC2)O1 (single isomer, unassigned) [Example 81] | 0.005 |
| C[C@@H]1Cc2cnc(N3CCN(C[C@H]4CN(c5ccc(C#N)c6nccnc56)C[C@@H](C)O4)CC3)cc2CN1 (single isomer, unassigned) [Example 82] | 0.011 |
| C[C@@H]1Cc2cc(N3CCN(C[C@H]4CN(c5ccc(C#N)c6nccnc56)C[C@@H](C)O4)CC3)ncc2CN1 (single isomer, unassigned) [Example 83] | 0.006 |
| C[C@@H]1CN(c2ccc(C#N)c3nccnc23)C[C@H](CN2CCN(c3cc4c(cn3)CN[C@@H](C)C4)CC2)O1 (single isomer, unassigned) [Example 84] | 0.007 |
| C[C@@H]1CN(c2ccc(C#N)c3nccnc23)C[C@H](CN2CCN(c3cc4c(cn3)[C@H](C)NCC4)CC2)O1 (single isomer, unassigned) [Example 85] | 0.005 |
| C[C@@H]1CN(c2ccc(C#N)c3ncccc23)C[C@H](CN2CC3[C@H](C2)OCCN3c2ccc3c(n2)CCNC3)O1 (stereo in doubt) [Example 53, cis-5-[(2R,6S)-2-methyl-6-[[4-(5,6,7,8-tetrahydro-1,6-naphthyridin-2-yl)-2,3,4a,5,7,7a-hexahydropyrrolo[3,4-b][1,4]oxazin-6-yl]methyl]morpholin-4-yl]quinoline-8-carbonitrile] | 0.003 |
| C[C@@H]1CN(c2ccc(C#N)c3ncccc23)C[C@H](CN2CCN(c3cccc4c3CNC4)CC2)O1 [Example 2, 5-[(2S,6R)-2-[(4-isoindolin-4-ylpiperazin-1-yl)methyl]-6-methyl-morpholin-4-yl] quinoline-8-carbonitrile] | 0.004 |
| C[C@@H]1CN(c2ccc(C#N)c3ncccc23)C[C@H](CN2CCN(c3ccc4c(c3)CNC4)[C@@H](CO)C2)O1 [Example 4, 5-[(2S,6R)-2-[[(3R)-3-(hydroxymethyl)-4-isoindolin-5-yl-piperazin-1-yl]methyl]-6-methyl-morpholin-4-yl]quinoline-8-carbonitrile] | 0.064 |
| C[C@@H]1CN(c2ccc(C#N)c3ncccc23)C[C@H](CN2CCN(c3ccc4c(c3)CCNC4)CC2)O1 [Example 5, 5-[(2R,6S)-2-methyl-6-[[4-(1,2,3,4-tetrahydroisoquinolin-6-yl)piperazin-1-yl]methyl]morpholin-4-yl]quinoline-8-carbonitrile] | 0.031 |
| C[C@@H]1CN(c2ccc(C#N)c3ncccc23)C[C@H](CN2CCN(c3ccc4c(c3)CNC4)CC2)O1 [Example 7, 5-[(2S,6R)-2-[(4-isoindolin-5-ylpiperazin-1-yl)methyl]-6-methyl-morpholin-4-yl] quinoline-8-carbonitrile] | 0.039 |
| C[C@@H]1CN(c2ccc(C#N)c3ncsc23)C[C@H](CN2CCN(c3cnc4c(c3)CNC4)CC2)O1 [Example 8, 7-[(2S,6R)-2-[[4-(6,7-dihydro-5H-pyrrolo[3,4-b]pyridin-3-yl)piperazin-1-yl]methyl]-6-methyl-morpholin-4-yl]-1,3-benzothiazole-4-carbonitrile] | 0.01 |

From patent EP3807270B1, “NOVEL HETEROARYL HETEROCYCLYL COMPOUNDS FOR THE TREATMENT OF AUTOIMMUNE DISEASE” (F. Hoffmann-La Roche AG, priority 2018, dated 2019)
